Measured values reported in BindingDB's records for PubMed 32916382 (Zhejiang University, 2020).

Experiments:
[1] = Inhibition of IL-6 (unknown origin) by ELISA assay
[2] = Inhibition of TNF-alpha (unknown origin) by ELISA assay

IC50 [1] | IC50 [2] | SMILES
1280 nM | 1420 nM | CC(C)=CCN1Cc2cc(Cl)c(Cl)c3nc(S)n(c23)C[C@@H]1C
2000 nM | 629 nM | CC(C)=CCN1Cc2cc(C)cc3[nH]c(=S)n(c23)CC1C (centres undefined)

More lines, now with the values behind:

SMILES | IC50 [1] | IC50 [2]
CCCC[C@@H]1OC(=O)C2=CCCC[C@H]21 | 1630 nM | 6380 nM
CCOC(=O)C1=C(C)N=c2s/c(=C\c3ccc(N4CCOCC4)cc3)c(=O)n2C1c1ccccc1 (centres undefined) | 860 nM | 3310 nM
CCOP(=O)(OCC)SCCSCC | 600 nM | 1160 nM
COP(=O)(OC)Oc1ccc([N+](=O)[O-])cc1 | 560 nM | 890 nM
CCSCCSP(=O)(OC)OC | 13800 nM | 20600 nM
